These results are taken from patent publication US9999616B2 (ZENITH EPIGENETICS LTD., priority 2013, dated 2018).

SMILES strings stand for the structures. pIC50: −log10 of the molar value. A value given as a limit tells only on which side of the number the result lay.

Assay [1] concerns the target Brd4 bromodomain 1 (BRD4(1)) (Homo sapiens, UniProt O60885). The assay can be described thus: Inhibition of tetra-acetylated histone H4 binding to Brd4 bromodomain 1, measured by FRET (HTRF). Further details: made in house; host or cells: E. coli BL21(DE3). Particulars: 2 h at room temperature. Summed up: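 N-terminally His-tagged bromodomain (200 nM), expressed in E. coli and purified by Ni affinity and size exclusion, was incubated with biotinylated tetra-acetylated H4 peptide (25-50 nM), Eu-cryptate streptavidin and XL665 anti-His in HEPES pH 7.4 buffer with 0.2% DMSO. Reactions ran 2 h at room temperature. IC50 came from the 665/620 nm fluorescence decrease.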

The test system of assay [2] is c-myc in Human AML MV4-11 cells. The experiment in a line: Inhibition of cMYC expression (mRNA, real-time PCR) in MV4-11 cells. Type of assay: cell-based. Particulars: 3 h treatment, cMYC mRNA by real-time PCR. The gist of the method:
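MV4-11 cells in IMDM with 10% FBS were treated with increasing compound concentrations (DMSO 0.1%) for 3 h at 37 °C, in triplicate. Isolated mRNA was quantified by one-step TaqMan RT-qPCR, cMYC Ct normalized to cyclophilin, and fold expression given relative to DMSO control.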
A general note: In qPCR the cycle at which signal appears reflects the starting amount.

In another assay the test system is Human AML MV-4-11 cells. The experiment in a line: Inhibition of cell proliferation in MV4-11 cells (CellTiter Aqueous One). Particulars: for pIC50: MV4-11, 72 h. The assay is classed as cell-based. Summed up:
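MV4-11 cells, 5×10^4 per well in IMDM with 10% FBS, were exposed to increasing compound concentrations or 0.1% DMSO for 72 h at 37 °C in triplicate. Viability was read by MTS (CellTiter Aqueous One) absorbance at 490 nm after 3-4 h. IC50 was derived from background-corrected signal relative to DMSO.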

The subject of the next assay is hIL-6 mRNA. The experiment in a line: Inhibition of hIL-6 mRNA transcription in LPS-stimulated U937 macrophages. Type of assay: cell-based, Human. Particulars: Homo sapiens, U-937, PMA-differentiated U937 cells, 1 h pretreatment, LPS 3 h, read-out: IL-6 activity. Summed up:
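PMA-differentiated U937 macrophages (60 ng/mL PMA, 3 days) pretreated 1 h with compound in 0.1% DMSO, then stimulated with 1 ug/mL E. coli LPS for 3 h at 37° C. IL-6 mRNA quantified by one-step TaqMan qRT-PCR, normalized to cyclophilin; fold expression relative to control, triplicate wells.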

For `Cc1noc(C)c1-c1cc(-c2cccc(C#N)c2C)c2nc(NC3CCOCC3)[nH]c2c1` [Example Compound 204, 3-(6-(3,5-dimethyl-isoxazol-4-yl)-2-((tetrahydro-2H-pyran-4-yl)amino)-1H-benzo[d]imidazol-4-yl)-2-methyl benzonitrile], the pIC50 (in assay [1]; in assay [2]; in the assay on Human AML MV-4-11 cells; in the assay on hIL-6 mRNA) was at least 6.52 each time.
On to `Cc1noc(C)c1-c1cc(-c2c(C)nn(C)c2C)c2[nH]ncc2c1` [Example Compound 127, 3,5-dimethyl-4-(7-(1,3,5-trimethyl-1H-pyrazol-4-yl)-1H-indazol-5-yl)isoxazole], for which the pIC50 (in assay [1]; in assay [2]; with Human AML MV-4-11 cells; with hIL-6 mRNA) was at least 6.52 in each case.
On to `COc1ccncc1Oc1cc(-c2c(C)noc2C)cc2[nH]c(C)nc12` [Example Compound 171, 4-(4-((4-methoxy-pyridin-3-yl)oxy)-2-methyl-1H-benzo[d]imidazol-6-yl)-3,5-dimethyl isoxazole], for which the pIC50 in assay [1] is at least 6.52; in assay [2] it was 5.52 to 6.52; in the assay on Human AML MV-4-11 cells it was 5.52 to 6.52; with hIL-6 mRNA it was 5.52 to 6.52.
With `Cc1nc2c(-c3ccccc3S(C)(=O)=O)cc(-c3c(C)noc3C)cc2[nH]1` [Example Compound 69, 3,5-dimethyl-4-(2-methyl-4-(2-(methyl-sulfonyl)phenyl)-1H-benzo[d]imidazol-6-yl)isoxazole], the pIC50 in assay [1] was at least 6.52; in assay [2] it was 5.52 to 6.52; in the assay on Human AML MV-4-11 cells it was 5.52 to 6.52; in the assay on hIL-6 mRNA it was 5.52 to 6.52.
Consider `Cc1noc(C)c1-c1cc(-c2c(C)noc2C)c2nc(N3CCOCC3)[nH]c2c1` [Example Compound 226, 4-(4,6-bis(3,5-dimethylisoxazol-4-yl)-1H-benzo[d]imidazol-2-yl)morpholine], for which the pIC50 (in assay [1]; in assay [2]; with Human AML MV-4-11 cells; in the assay on hIL-6 mRNA) was at least 6.52 throughout.
In the case of `Cc1nc2c(-c3ccc4nccnc4c3)cc(-c3c(C)noc3C)cc2[nH]1` [Example Compound 153, 3,5-dimethyl-4-(2-methyl-4-(quinoxalin-6-yl)-1H-benzo[d]imidazol-6-yl)isoxazole], the pIC50 in assay [1] was at least 6.52; in assay [2], 5.52 to 6.52; in the assay on Human AML MV-4-11 cells it was 5.52 to 6.52; in the assay on hIL-6 mRNA, 5.52 to 6.52.
As for `Cc1noc(C)c1-c1cc(NCc2ccccc2)c2nncn2c1` [Example Compound 24, N-benzyl-6-(3,5-dimethylisoxazol-4-yl)-[1,2,4]triazolo[4,3-o]pyridin-8-amine], the pIC50 in assay [1] was at least 6.52; in assay [2] it was 5.52 to 6.52; in the assay with Human AML MV-4-11 cells, 4.52 to 5.52; in the assay with hIL-6 mRNA it was 5.52 to 6.52.
`Cc1nc2c(Oc3cc(C(N)=O)ccc3C)cc(-c3c(C)noc3C)cc2[nH]1` [Example Compound 174, 3-((6-(3,5-dimethylisoxazol-4-yl)-2-methyl-1H-benzo[d]imidazol-4-yl)oxy)-4-methylbenzamide]: the pIC50 in assay [1] was at least 6.52; in assay [2], 5.52 to 6.52; with Human AML MV-4-11 cells it was 5.52 to 6.52; with hIL-6 mRNA, 5.52 to 6.52.
Take `COc1ccc(C)cc1-c1cc(-c2c(C)noc2C)cc2[nH]cnc12` [Example Compound 51, 4-(4-(2-methoxy-5-methyl-phenyl)-1H-benzo[d]midazol-6-yl)-3,5-dimethyl isoxazole]: the pIC50 in assay [1] was at least 6.52; in assay [2], 5.52 to 6.52; in the assay with Human AML MV-4-11 cells it was 5.52 to 6.52; in the assay with hIL-6 mRNA, 5.52 to 6.52.
Regarding `Cc1noc(C)c1-c1cc(-c2cccc(C(N)=O)c2C)c2nc(N3CCN(C)CC3)[nH]c2c1` [Example Compound 206, 3-(6-(3,5-dimethyl-isoxazol-4-yl)-2-(4-methyl-piperazin-1-yl)-1H-benzo[d]imidazol-4-yl)-2-methyl benzamide], the pIC50 in assay [1] was at least 6.52; in assay [2], 5.52 to 6.52; in the assay on Human AML MV-4-11 cells it was 5.52 to 6.52; in the assay with hIL-6 mRNA, 5.52 to 6.52.
As to `Cc1noc(C)c1-c1cc(-c2c(C)noc2C)c2nc(C(F)(F)F)[nH]c2c1` [Example Compound 34, 4,4′-(2-(trifluoromethyl)-1H-benzo[d]imidazole-4,6-diyl)bis(3,5-dimethylixaole)], the pIC50 in assay [1] was at least 6.52; in assay [2] it was 5.52 to 6.52; with Human AML MV-4-11 cells, 5.52 to 6.52; in the assay on hIL-6 mRNA it was 5.52 to 6.52.
For `Cc1noc(C)c1-c1cc(-c2c(C)noc2C)c2nc(NCCO)[nH]c2c1` [Example Compound 150, 2-((4,6-bis(3,5-dimethyl-isoxazol-4-yl)-1H-benzo[d]imidazol-2-yl)amino) ethanol], the pIC50 in assay [1] was at least 6.52; in assay [2], 5.52 to 6.52; in the assay with Human AML MV-4-11 cells, 5.52 to 6.52; in the assay with hIL-6 mRNA, 5.52 to 6.52.
As to `COc1ccc(F)cc1-c1cc(-c2c(C)noc2C)cc2[nH]c(C)nc12` [Example Compound 112, 4-(4-(5-fluoro-2-methoxy-phenyl)-2-methyl-1H-benzo[d]imidazol-6-yl)-3,5-dimethyl-isoxazole], the pIC50 in assay [1] is at least 6.52; in assay [2], at least 6.52; in the assay on Human AML MV-4-11 cells it was 5.52 to 6.52; in the assay on hIL-6 mRNA, at least 6.52.
On to `Cc1nc2c(Oc3cccnc3C)cc(-c3c(C)noc3C)cc2[nH]1` [Example Compound 155, 3,5-dimethyl-4-(2-methyl-4-((2-methylpyridin-3-yl)oxy)-1H-benzo[d]imidazol-6-yl)isoxazole], for which the pIC50 in assay [1] was at least 6.52; in assay [2], 5.52 to 6.52; with Human AML MV-4-11 cells it was 5.52 to 6.52; with hIL-6 mRNA, 5.52 to 6.52.
For the molecule `Cc1nc2c(-c3csnc3C)cc(-c3csnc3C)cc2[nH]1` [Example Compound 139, 4,4′-(2-methyl-1H-benzo[d]imidazole-4,6-diyl)bis(3-methylisothiazole)], the figures for the pIC50 (in assay [1]; in assay [2]; in the assay on hIL-6 mRNA) were 5.52 to 6.52, 4.52 to 5.52 and 5.52 to 6.52, respectively. Moreover, the “Cell Proliferation activity” value with Human AML MV-4-11 cells (72 h) was “Not active”.
Turning to `Cc1noc(C)c1-c1cc(-c2c(C)noc2C)c2nc(NC3CCOCC3)[nH]c2c1` [Example Compound 229, 4,6-bis(3,5-dimethyl-isoxazol-4-yl)-N-(tetrahydro-2H-pyran-4-yl)-1H-benzo[d] imidazol-2-amine], the pIC50 in assay [1] was at least 6.52; in assay [2], at least 6.52; with Human AML MV-4-11 cells, 5.52 to 6.52; with hIL-6 mRNA, at least 6.52.
Consider `Cc1nc2c(-c3ccccc3C)cc(-c3c(C)noc3C)cc2[nH]1` [Example Compound 89, 3,5-dimethyl-4-(2-methyl-4-(o-tolyl)-1H-benzo[d]imidazol-6-yl)isoxazole], for which the pIC50 in assay [1] was at least 6.52; in assay [2], at least 6.52; with Human AML MV-4-11 cells it was 5.52 to 6.52; in the assay with hIL-6 mRNA, 5.52 to 6.52.
Take `Cc1nc2c(-c3cc(C(F)(F)F)ccc3F)cc(-c3c(C)noc3C)cc2[nH]1` [Example Compound 157, 4-(4-(2-fluoro-5-(trifluoro-methyl)phenyl)-2-methyl-1H-benzo[d]imidazol-6-yl)-3,5-dimethyl isoxazole]: the pIC50 is at least 6.52 in assay [1], 5.52 to 6.52 in assay [2], 5.52 to 6.52 in the assay on Human AML MV-4-11 cells and 5.52 to 6.52 in the assay with hIL-6 mRNA.
For the molecule `Cc1nc2c(-c3c(C)ncnc3C)cc(-c3c(C)noc3C)cc2[nH]1` [Example Compound 98, 4-(4-(4,6-dimethyl-pyrimidin-5-yl)-2-methyl-1H-benzo[d]imidazol-6-yl)-3,5-dimethyl isoxazole], the pIC50 in assay [1] was at least 6.52; in assay [2], 5.52 to 6.52; in the assay with Human AML MV-4-11 cells it was 5.52 to 6.52; with hIL-6 mRNA, 5.52 to 6.52.
Turning to `Cc1nc2c(-c3cccc(C)c3F)cc(-c3c(C)noc3C)cc2[nH]1` [Example Compound 106, 4-(4-(2-fluoro-3-methyl-phenyl)-2-methyl-1H-benzo[d]imidazol-6-yl)-3,5-dimethyl isoxazole], the pIC50 in assay [1] was at least 6.52; in assay [2], 5.52 to 6.52; in the assay on Human AML MV-4-11 cells it was 5.52 to 6.52; in the assay with hIL-6 mRNA, 5.52 to 6.52.
Take `COc1cccc(-c2cc(-c3c(C)noc3C)cc3[nH]c(C)nc23)c1F` [Example Compound 152, 4-(4-(2-fluoro-3-methoxy-phenyl)-2-methyl-1H-benzo[d]imidazol-6-yl)-3,5-dimethyl isoxazole]: the pIC50 in assay [1] is at least 6.52; in assay [2], 5.52 to 6.52; with Human AML MV-4-11 cells, 5.52 to 6.52; with hIL-6 mRNA, at least 6.52.
For the molecule `Cc1nc2c(-c3cccc(C#N)c3C)cc(-c3c(C)noc3C)cc2[nH]1` [Example Compound 123, 3-(6-(3,5-dimethyl-isoxazol-4-yl)-2-methyl-1H-benzo[d]imidazol-4-yl)-2-methyl-benzonitrile], the pIC50 in assay [1] is at least 6.52; in assay [2], at least 6.52; with Human AML MV-4-11 cells it was 5.52 to 6.52; with hIL-6 mRNA it was at least 6.52.
